The subject of data set [1] is male subjects. In words: Example 3: single administration contraceptive effect, semen analysis (IR formulation). The data set is classed as in vivo, human. The procedure:
A study is undertaken to evaluate the effectiveness of the compositions of the present invention in the treatment of male subjects. The objective of the study is to determine whether oral intake of (R)-Silodosin formulation results in a contraceptive effect.
A total of 7 subjects, aged 18 to 40 years were enrolled in an open-label study. An initial analysis of each subject's semen, collected via masturbation after 3 days of abstinence, is performed by microscopic examination of the fresh semen. Each subject receives one single dose of 12 mg immediate release (R)-Silodosin.
A semen analysis of each subject is conducted 24 hours after the dosing.

For data set [2] the following is noted: cited from earlier work.
For data set [3] the following is noted: cited from earlier work. The source holds these as a separate data set.
The conditions of data set [4]: 4 mg twice a day; cited from earlier work.
In data set [5] the test system is Healthy Volunteers. As to conditions: 4 mg twice a day for 3 days; cited from earlier work.
In data set [6] the test system is male subjects. The settings on record: in vivo; cited from earlier work.
The subject of the next data set is healthy volunteer men. As to conditions: in vivo; cited from earlier work.
The next data set deals with sexually active men. The settings on record: in vivo; cited from earlier work.
The conditions of data set [7]: in vivo; cited from earlier work.
A further data set deals with participants. The settings on record: cited from earlier work.
For a further data set, the system named is prostatic smooth muscle. As to conditions: cited from earlier work.
Another data set deals with male. The settings on record: cited from earlier work.
For data set [8], the system named is Healthy Volunteers. As to conditions: cited from earlier work.
The mark [9] stands for this setting: single dose 12 mg, immediate release (IR) formulation, 24 h, N = 7.
Setting [10] is: traditional formulations, with food.

Structures can show the parent of a compound that is named as a salt.

On to `C[C@H](Cc1cc2c(c(C(N)=O)c1)N(CCCO)CC2)NCCOc1ccccc1OCC(F)(F)F` [(R)-Silodosin, (−)-(R)-1-(3-hydroxypropyl)-5-[2-[[2-[2-(2,2,2-trifluoroethoxy)phenoxy]ethyl]amino]propyl]indoline-7-carboxamide], for which the “time for which contraception is maintained” value in the data set on male subjects [1] (after a 12-mg single dose) is on record as “up to 24 h”. Besides, in the data set on male subjects [1] (setting [9]), the “Aspermia (subjects with effect)” value is 6/7; the “Azoospermia (subjects with effect)” value is listed as 1/7; the “Total, aspermia or azoospermia (subjects with effect)” value is listed as 7/7. In data set [2], the “solubility in acetic acid” value is “very soluble”, the solubility in alcohol result was “freely soluble” and the solubility in water result is “very slightly soluble”. For the same compound, the “median Tmax” value in data set [3] (CDER NDA 22-206) is recorded as “about 2 hours”. In [3] (setting [10]), the “food effect on Cmax” value is recorded as “lower” and the “food effect on Tmax” value is given as “delayed”. Also, the ejaculatory disorder entry in [4] is recorded as “high incidence”. Besides, the seminal emission entry with Healthy Volunteers [5] was “complete lack of seminal emission”. In addition, the “rate of discomfort upon ejaculation” value in the data set with male subjects [6] is on record as 100%. Also, the quality of orgasm result in the data set with healthy volunteer men is listed as “decrease”. Also, the erectile function result in the data set on sexually active men was “decrease”. Moreover, the sexual desire result in data set [7] is reported as “decrease”. The “spermatozoa in the semen and post-analysis urine” value in the data set with participants (8 mg for 7 days, 2 hours after intake) is recorded as “no spermatozoa”. Also, the “semen analysis after switch to placebo” value in the data set with participants (Day 8 to 15 placebo, from day 2 of placebo) is given as “normal semen analysis”. Also, the unintended pregnancy entry in the data set with participants (on demand 8 mg prior to intercourse, 6 months) is listed as “no unintended pregnancy”. Also, the “uroselectivity compared with other alpha-1 blockers, such as tamsulosin and naftopidil” value in the data set on prostatic smooth muscle is given as “greater”.
Turning to `CC(COc1ccccc1)N(CCCl)Cc1ccccc1` (centres unmarked) [phenoxybenzamine], the “effect following male orgasm” value in the data set on male (doses up to 20 mg/day) is recorded as “aspermia”. Moreover, the “reversal of ejaculation block with cessation of treatment” value in the data set with male (in vivo) is recorded as “fully reversed”.
In the case of `CCOc1ccccc1OCCN[C@H](C)Cc1ccc(OC)c(S(N)(=O)=O)c1` [tamsulosin, (−)-(R)-5-[2-[[2-(o-Ethoxyphenoxy)ethyl]amino]propyl]-2-methoxybenzenesulfonamide, monohydrochloride], the ejaculation entry in the data set on Healthy Volunteers [8] (0.8-mg dose) was “An ejaculation was reached”. In the data set on Healthy Volunteers [8] (in vivo), the functional sperm count result was “significantly reduced” and the “side effects including discomfort on ejaculation” value was “reported by some subjects”. For the same compound, in the data set on Healthy Volunteers [8] (single dose of 0.4 or 0.8 mg, 4 to 6 hours after dosing), the volume of semen entry was “dose dependent decrease”.

These data come from patent publication US11951095B2, “Non-hormonal compositions and methods for male contraception” (PHARMAJOR INTERNATIONAL, priority 2018, dated 2024).
